In experiment [1] the test system is vascular calcification (aortae and carotid arteries). Description: Experiment 4: vascular calcification (Von Kossa staining) in rats treated with warfarin, vitamin K-1 and increasing doses of MK-4 (KW model). The experiment is classed as in vivo, male Lewis rats. The source says: In the present invention the “Vitamin K1 plus warfarin” model was used to test effects of isoprenyl derivatives on vascular calcification. This model is also referred to as the “KW model for calcification” or “KW model”. Because of the parallels between vascular calcification and calcium metabolism in bone, the model is regarded to be valid for describing potential effects on bone. Whereas in this model the bone deformations will not become visible before 9 months of treatment, calcification of the large arteries is usually apparent within 4 weeks of treatment. This model therefore provides an excellent in vivo model to test the compounds according to the invention for their tissue distribution, toxicity and effectivity. […] It was shown that calcification was not inhibited by vitamin K-1 in doses going up from 40 to 600 mg/kg of body weight per day. The highest dose was 15,000 times the amount required for normal blood coagulation in untreated animals, and 15 times the amount required for normal blood coagulation in warfarin-treated animals. At these high intakes all tissues contain excessive amounts of vitamin K-1, which apparently are incapable of supporting the synthesis of inhibitors of calcium precipitation such as the Gla-protein MGP. […]

For another experiment, the system named is postmenopausal bone loss. Particulars: cited from earlier work.
Experiment [2] deals with prothrombin. The experiment in a line: Experiment 1: dietary requirement of vitamin K-1 in untreated rats, prothrombin concentration (one-stage coagulation assay). The settings on record: for Mean prothrombin concentration: four weeks. The experiment is classed as in vivo, male Lewis rats. The protocol:
In experiment 1 the dietary requirement of vitamin K-1 was measured in untreated male Lewis rats, 6 weeks of age, on the basis of blood coagulation tests after a treatment period of 4 weeks. At an intake of 40 microgram vitamin K-1 per kg body weight per day, the synthesis of coagulation factors had reached its (maximal) plateau level.
Male rats of the Lewis strain were used throughout our experiments, six animals per group. Thirty six animals entered the experiment at the age of 6 weeks and received a vitamin K deficient diet (Hope Farms, Woerden, The Netherlands) for one week to deplete them from endogenous vitamin K. During the experiment they were housed in coprophagy-preventing cages. After this period citrated blood was taken from the tail vein, and the prothrombin concentrations (one-stage coagulation assay) were checked to be below the normal reference value. At that time they received vitamin K-deficient food to which controlled amounts of vitamin K-1 were added in the following doses: 0.1, 0.2, 0.4, 0.6, 0.8, and 1.0 mg/kg of food. The daily food intake was recorded, and the body weight of the animals was measured regularly. After four weeks of treatment at the indicated doses again blood was taken and prothrombin concentrations were measured. Mean prothrombin concentrations in the groups were: 23%, 48%, 82%, 98%, 102%, and 99% of pooled normal rat reference plasma. […] This amount corresponds with an intake of 40 micrograms of vitamin K-1 per kg body weight per day.

Experiment [3] deals with vascular calcification (aortic arch and carotid arteries). The experiment in a line: Experiment 3: vascular calcification (Von Kossa staining) in rats treated with warfarin and increasing doses of vitamin K-1. The experiment is classed as in vivo, male Lewis rats. The source says:
In the present invention the “Vitamin K1 plus warfarin” model was used to test effects of isoprenyl derivatives on vascular calcification. This model is also referred to as the “KW model for calcification” or “KW model”. Because of the parallels between vascular calcification and calcium metabolism in bone, the model is regarded to be valid for describing potential effects on bone.
The same animals described in experiment 2 were killed, and the aortic arch and carotid arteries were removed and stained for calcium deposits using the Von Kossa staining and histochemical inspection.

Experiment [4] concerns prothrombin. Description: Experiment 2: dietary requirement of vitamin K-1 in warfarin-treated rats, plasma prothrombin level. The experiment is classed as in vivo, male Lewis rats. How it is done:
In experiment 2 the dietary requirement of vitamin K-1 in warfarin-treated (300 mg Vitamin K-1 per kg body weight per day) male Lewis rats, 6 weeks of age, was measured on the basis of blood coagulation tests after a treatment period of 4 weeks. At a level of 40 mg vitamin K-1 per kg body weight per day a normal prothrombin synthesis was maintained.
Thirty six male Lewis rats (6 weeks of age) were treated with an excess of warfarin (300 mg vitamin K-1 per kg body weight per day) to block all dithiol reductase present in the tissues. They were subdivided into groups of 6 animals each and received vitamin K-1 in the following doses: 20, 40, 70, 100, 300, and 600 mg/kg body weight per day. […] It was concluded that […] of vitamin K-1 per kg body weight per day effectively protects the animals against warfarin-induced bleeding.

“Also recorded” adds a separate entry of the source.

Turning to `CC(C)=CCC/C(C)=C/CC/C(C)=C/CC/C(C)=C/CC1=C(C)C(=O)c2ccccc2C1=O` [MK-4, 2-methyl 3-geranylgeranyl naphthoquinone], the “Inhibition of vascular calcification” value in experiment [1] (KW model, addition of 10 mg/kg body weight per day of MK-4) was “effectively inhibited all vascular calcification”. Besides, in experiment [1] (warfarin 300 mg/kg/d plus vitamin K-1 70 mg/kg/d plus MK-4 10, 20 and 50 mg per kg body weight per day, 6 weeks), the “Vascular calcification (Von Kossa staining)” value is “no calcification”. Besides, in the experiment on postmenopausal bone loss (high doses of MK-4 (45 mg/day)), the Action on bone entry is “comparable with that of bisphosphonates”. Moreover, the “Effect on postmenopausal bone loss” value in the experiment on postmenopausal bone loss (high doses) is on record as “almost completely inhibit postmenopausal bone loss”.

Turning to `CC1=C(C/C=C(\C)CCC[C@H](C)CCC[C@H](C)CCCC(C)C)C(=O)c2ccccc2C1=O` [vitamin K-1], in the experiment on prothrombin [2] (untreated rats, content in food), the “Diet content sufficient to maintain normal prothrombin synthesis” value is 0.6 mg of vitamin K-1 per kg. For the same molecule, the Mean prothrombin concentration with prothrombin [2] (vitamin K-1 0.1 mg/kg of food, after vitamin K deficient diet) is reported as 23 % of pooled normal rat reference plasma; with prothrombin [2] (vitamin K-1 0.2 mg/kg of food), 48 % of pooled normal rat reference plasma; in the experiment on prothrombin [2] (vitamin K-1 0.4 mg/kg of food), 82 % of pooled normal rat reference plasma; with prothrombin [2] (vitamin K-1 0.6 mg/kg of food), 98 % of pooled normal rat reference plasma; in the experiment on prothrombin [2] (vitamin K-1 0.8 mg/kg of food), 102 % of pooled normal rat reference plasma; with prothrombin [2] (vitamin K-1 1.0 mg/kg of food), 99 % of pooled normal rat reference plasma. In experiment [3] (KW model, vitamin K-1 doses going up from 40 to 600 mg/kg of body weight per day), the Inhibition of calcification result is given as “not inhibited”. The “Vascular calcification (Von Kossa staining)” value in experiment [3] (warfarin 300 mg/kg/d plus vitamin K-1 20, 40, 70, 100, 300 and 600 mg/kg body weight per day, 4 weeks) is “substantial calcification; also recorded: Calcification of the media (notably the elastic lamelae) was found in all animals”. Further, the “Dose that effectively protects the animals against warfarin-induced bleeding” value in the experiment with prothrombin [4] is given as 70 mg of vitamin K-1 per kg body weight per day. Moreover, in the experiment on prothrombin [4] (4 weeks), the “Level at which a normal prothrombin synthesis was maintained” value was 40 mg vitamin K-1 per kg body weight per day. In addition, the Circulating prothrombin concentration in the experiment with prothrombin [4] (20 and 40 mg of vitamin K-1 per day) is given as 60 % of normal; in the experiment on prothrombin [4] (all higher intakes (70, 100, 300, 600 mg/kg body weight per day)) it was “comparable to normal reference values”.

(Values after patent publication US20050176778A1, “Isoprenyl derivatives and their use in the title treatment and prevention of osteoporosis and cardiovascular calcification” (Vitak BV, priority 2001, published 2005).)
